In patent US6932968B1, “Erythropoietin (EPO) peptides and antibodies directed against these” (Dade Behring Marburg GmbH, priority 1989, dated 2005):

Test: Immunization of rabbits with peptide-KLH conjugates, antibody detection by solid-phase ELISA / Western Blot
Assay type: in vivo
Details: high-titer epitope-specific anti-EPO antibodies
Description: In order to produce antibodies specific for EPO peptides, the peptide-KLH conjugates were emulsified with adjuvants and injected into rabbits in accordance with a 5-week immunization regimen. After this time the animals had produced specific antibodies and were bled.
A solid-phase ELISA was used to assay the sera for peptide or EPO specificity. The content of peptide-specific and EPO-specific antibodies in the antisera or in the antibody fractions which had been purified by affinity chromatography was determined in plastic microtiter plates, which were coated with purified EPO or with EPO peptides, using an enzyme-coupled anti-rabbit-Ig antiserum. In parallel with this, the antibodies were examined in a Western Blot to detect the specific EPO bands of 34–38 kDa.
Rabbits were immunized with […] of antigen per animal on each occasion for a period of 5 weeks. At the first immunization, the animals each received 0.4 mg of antigen in complete Freund's adjuvant (CFA) subcutaneously at 8 immunization sites in the vicinity of the lymph nodes. This was followed 2 weeks later by subcutaneous immunization with 0.8 mg of antigen/animal in CFA. After a further 2 weeks, the animals received intravenous administration of 0.1 mg of antigen in Aerosil on each of 5 consecutive days. 3 days later they were bled, and the individual antisera were obtained.
20 μg/ml EPO or EPO-specific peptides were coupled in carbonate buffer in plastic microtiter plates at 4° C. overnight. Before carrying out the assays, the plates were washed twice with PBS, saturated with PBS/0.5% BSA for 30 minutes and then washed three times with PBS.
The plates saturated with BSA were incubated with dilutions of the anti-EPO rabbit antisera or of the purified antibody fractions for 2 hours. After this time they were washed with PBS and incubated with anti-rabbit Ig anti-serum, which was coupled to alkaline phosphatase, for 2 hours. […] The reaction was stopped with 1 M NaOH after one hour, and the optical density at […] was measured. […]

Sequence | Immunogenicity of the EPO peptide
CDSRVLERYLLEAKEAE [P4/1, EPO peptide, amino-acid positions 7 to 23] | highly immunogenic
KRMEVGQQAVEV [P3/1, EPO peptide, amino-acid positions 52 to 63] | highly immunogenic
SSQPWEPLQLHV [P1/1, EPO peptide, amino-acid positions 84 to 95] | highly immunogenic
